From BindingDB's records for doi:10.1016/j.bmcl.2010.09.011 (The University of Tokyo, 2010)

How the values were obtained:
[1] = Vitamin-D activity at VDR receptor in human HL60 cells assessed as induction of cell differentiation by NBT reduction assay
[2] = Antiandrogen activity against androgen receptor in androgen-dependent mouse SC3 cells assessed as inhibition of testosterone-induced cell proliferation by WST1 assay

SMILES | EC50 [1] [µM] | IC50 [2] [µM]
CCC(CC)(c1ccc(OC[C@@H](O)CO)c(C)c1)c1ccc(OC[C@H](O)C(C)(C)C)c(C)c1 [(2S)-3-{4-[1-ethyl-1-(4-{[(2R)-2-hydroxy-3,3-dimethylbutyl]oxy}-3-methylphenyl)propyl]-2-methylphenoxy}propane-1,2-diol] | – | 0.003
CCC(CC)(c1ccc(OCC(O)C(C)(C)Cc2ccccc2)c(C)c1)c1ccc(OC[C@@H](O)CO)c(C)c1 (stereo partly drawn) [(2S)-3-(4-(3-(4-(2-hydroxy-3,3-dimethyl-4-phenylbutoxy)-3-methylphenyl)pentan-3-yl)-2-methylphenoxy)propane-1,2-diol] | 11 | 1.7
CCC(CC)(c1ccc(OC[C@H](O)CO)c(C)c1)c1ccc(OC[C@H](O)C(C)(C)C)c(C)c1 [(R)-3-(4-(3-(4-((R)-2-hydroxy-3,3-dimethylbutoxy)-3-methylphenyl)pentan-3-yl)-2-methylphenoxy)propane-1,2-diol] | – | 0.014
CCC(CC)(c1ccc(OC[C@@H](O)CO)c(C)c1)c1ccc(OC[C@@H](O)C(C)(C)C)c(C)c1 [(S)-3-(4-(3-(4-((S)-2-hydroxy-3,3-dimethylbutoxy)-3-methylphenyl)pentan-3-yl)-2-methylphenoxy)propane-1,2-diol] | – | 0.013
CCC(CC)(c1ccc(OCC(=O)C(C)(C)C)c(C)c1)c1ccc(OCC(O)CO)c(C)c1 (stereo not given) [LG190178] | 0.09 | –
CCC(CC)(c1ccc(OCC(=O)C(C)(C)C)c(C)c1)c1ccc(OC[C@H](O)CO)c(C)c1 [(R)-1-(4-(3-(4-(2,3-dihydroxypropoxy)-3-methylphenyl)pentan-3-yl)-2-methylphenoxy)-3,3-dimethylbutan-2-one] | – | 0.015
CCC(CC)(c1ccc(OCC(O)C(C)(C)Cc2ccc3ccccc3c2)c(C)c1)c1ccc(OC[C@@H](O)CO)c(C)c1 (stereo partly drawn) [(2S)-3-(4-(3-(4-(2-hydroxy-3,3-dimethyl-4-(naphthalen-2-yl)butoxy)-3-methylphenyl)pentan-3-yl)-2-methylphenoxy)propane-1,2-diol] | > 30 | > 10
CCC(CC)(c1ccc(OC[C@@H](O)CO)c(C)c1)c1ccc(O[C@@H]2CN(Cc3ccccc3)C[C@@H]2O)c(C)c1 [(2S)-3-(4-(3-(4-(1-benzyl-4-hydroxypyrrolidin-3-yloxy)-3-methylphenyl)pentan-3-yl)-2-methylphenoxy)propane-1,2-diol] | > 30 | > 10
CCC(CC)(c1ccc(OCC(=O)C(C)(C)Cc2ccccc2)c(C)c1)c1ccc(OC[C@@H](O)CO)c(C)c1 [(S)-1-(4-(3-(4-(2,3-dihydroxypropoxy)-3-methylphenyl)pentan-3-yl)-2-methylphenoxy)-3,3-dimethyl-4-phenylbutan-2-one] | 21 | > 10
CCC(CC)(c1ccc(OC[C@H](O)CO)c(C)c1)c1ccc(OC[C@@H](O)C(C)(C)C)c(C)c1 [(R)-3-(4-(3-(4-((S)-2-hydroxy-3,3-dimethylbutoxy)-3-methylphenyl)pentan-3-yl)-2-methylphenoxy)propane-1,2-diol] | – | 0.068

Now from value to molecule:

EC50 [1] [µM] | IC50 [2] [µM] | SMILES
> 30 | > 30 | CCC(CC)(c1ccc(OCC(=O)C23CC4CC(CC(C4)C2)C3)c(C)c1)c1ccc(OC[C@@H](O)CO)c(C)c1
– | 0.032 | CCC(CC)(c1ccc(OCC(=O)C(C)(C)C)c(C)c1)c1ccc(OC[C@@H](O)CO)c(C)c1 [(S)-1-(4-(3-(4-(2,3-dihydroxypropoxy)-3-methylphenyl)pentan-3-yl)-2-methylphenoxy)-3,3-dimethylbutan-2-one]
> 30 | 9.8 | CCC(CC)(c1ccc(OCC(=O)C(C)(C)CCCc2ccccc2)c(C)c1)c1ccc(OC[C@@H](O)CO)c(C)c1 [(S)-1-(4-(3-(4-(2,3-dihydroxypropoxy)-3-methylphenyl)pentan-3-yl)-2-methylphenoxy)-3,3-dimethyl-6-phenylhexan-2-one]
7.1 | 0.88 | CCC(CC)(c1ccc(OCC(O)C(C)(C)CCc2ccccc2)c(C)c1)c1ccc(OC[C@@H](O)CO)c(C)c1 (stereo partly drawn) [(2S)-3-(4-(3-(4-(2-hydroxy-3,3-dimethyl-5-phenylpentyloxy)-3-methylphenyl)pentan-3-yl)-2-methylphenoxy)propane-1,2-diol]
> 30 | > 30 | CCC(CC)(c1ccc(OC[C@@H](O)CO)c(C)c1)c1ccc(O[C@@H]2CN(C(=O)OCc3ccccc3)C[C@@H]2O)c(C)c1 [benzyl 3-(4-(3-(4-((S)-2,3-dihydroxypropoxy)-3-methylphenyl)pentan-3-yl)-2-methylphenoxy)-4-hydroxypyrrolidine-1-carboxylate]
> 30 | > 30 | CCC(CC)(c1ccc(OCC(=O)C(C)(C)Cc2ccc3ccccc3c2)c(C)c1)c1ccc(OC[C@@H](O)CO)c(C)c1 [(S)-1-(4-(3-(4-(2,3-dihydroxypropoxy)-3-methylphenyl)pentan-3-yl)-2-methylphenoxy)-3,3-dimethyl-4-(naphthalen-2-yl)butan-2-one]
3.6 | 0.13 | CCC(CC)(c1ccc(OCC(O)C(C)(C)CCCc2ccccc2)c(C)c1)c1ccc(OC[C@@H](O)CO)c(C)c1 (stereo partly drawn) [(2S)-3-(4-(3-(4-(2-hydroxy-3,3-dimethyl-6-phenylhexyloxy)-3-methylphenyl)pentan-3-yl)-2-methylphenoxy)propane-1,2-diol]
> 30 | > 30 | CCC(CC)(c1ccc(OCC(=O)C(C)(C)CCCCc2ccccc2)c(C)c1)c1ccc(OC[C@@H](O)CO)c(C)c1 [(S)-1-(4-(3-(4-(2,3-dihydroxypropoxy)-3-methylphenyl)pentan-3-yl)-2-methylphenoxy)-3,3-dimethyl-7-phenylheptan-2-one]
22 | > 10 | CCC(CC)(c1ccc(OCC(O)C23CC4CC(CC(C4)C2)C3)c(C)c1)c1ccc(OC[C@@H](O)CO)c(C)c1 (stereo not given in full)
> 30 | > 10 | CCC(CC)(c1ccc(OCC(O)C(C)(C)CCCCc2ccccc2)c(C)c1)c1ccc(OC[C@@H](O)CO)c(C)c1 (stereo partly drawn) [(2S)-3-(4-(3-(4-(2-hydroxy-3,3-dimethyl-7-phenylheptyloxy)-3-methylphenyl)pentan-3-yl)-2-methylphenoxy)propane-1,2-diol]
23 | 1.1 | CCC(CC)(c1ccc(OCC(=O)C(C)(C)CCc2ccccc2)c(C)c1)c1ccc(OC[C@@H](O)CO)c(C)c1 [(S)-1-(4-(3-(4-(2,3-dihydroxypropoxy)-3-methylphenyl)pentan-3-yl)-2-methylphenoxy)-3,3-dimethyl-5-phenylpentan-2-one]
